Publication PMC9979163, “Discovery and functional characterization of N-(thiazol-2-yl)-benzamide analogs as the first class of selective antagonists of the Zinc-Activated Channel (ZAC)” (Biochemical pharmacology, 2021)
Each block holds one compound with its values, some of them ahead of it.

Columns and labels:
glucokinase = target: glucokinase; design: method as in PMID 19282189; conditions: Fig. 10; cited from earlier work
[1] = target: metabotropic glutamate receptor 1; design: method as in PMID 19674894; conditions: Fig. 10; cited from earlier work
stearoyl-CoA desaturase = target: stearoyl-CoA desaturase; design: method as in PMID 19541482; conditions: Fig. 10; cited from earlier work
ZAC [2] = target: T1, ZAC (Homo sapiens, UniProt Q401N2); conditions: Zn2+ (1 mM) as agonist, TEVC; cited from earlier work
T1 sequence (Q401N2 26-412): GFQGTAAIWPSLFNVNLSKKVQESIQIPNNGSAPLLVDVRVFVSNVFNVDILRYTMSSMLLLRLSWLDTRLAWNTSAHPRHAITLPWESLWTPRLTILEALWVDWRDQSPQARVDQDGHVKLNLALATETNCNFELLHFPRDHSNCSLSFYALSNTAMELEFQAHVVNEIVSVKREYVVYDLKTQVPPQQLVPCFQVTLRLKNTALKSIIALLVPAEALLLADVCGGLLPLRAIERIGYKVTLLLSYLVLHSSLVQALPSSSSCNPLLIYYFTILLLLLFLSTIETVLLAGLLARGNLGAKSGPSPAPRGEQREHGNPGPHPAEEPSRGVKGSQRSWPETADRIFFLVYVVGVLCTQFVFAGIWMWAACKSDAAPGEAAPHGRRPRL

Adenosine A1 receptor = target: Adenosine A1 receptor; design: method as in PMID 11262085; conditions: Fig. 10; cited from earlier work
Hec1/Nek2 interaction = system: Hec1/Nek2 interaction; design: method as in PMID 18922912; conditions: Fig. 10; cited from earlier work
h5-HT3A = target: T2, h5-HT3A (Homo sapiens, UniProt P46098); experiment: FMP assay at h5-HT3A-HEK293 cells; type: cell-based; conditions: concentrations up to 300 μM, data not shown
T2 construct: expressed in transfected cells
T2 sequence (P46098 24-478): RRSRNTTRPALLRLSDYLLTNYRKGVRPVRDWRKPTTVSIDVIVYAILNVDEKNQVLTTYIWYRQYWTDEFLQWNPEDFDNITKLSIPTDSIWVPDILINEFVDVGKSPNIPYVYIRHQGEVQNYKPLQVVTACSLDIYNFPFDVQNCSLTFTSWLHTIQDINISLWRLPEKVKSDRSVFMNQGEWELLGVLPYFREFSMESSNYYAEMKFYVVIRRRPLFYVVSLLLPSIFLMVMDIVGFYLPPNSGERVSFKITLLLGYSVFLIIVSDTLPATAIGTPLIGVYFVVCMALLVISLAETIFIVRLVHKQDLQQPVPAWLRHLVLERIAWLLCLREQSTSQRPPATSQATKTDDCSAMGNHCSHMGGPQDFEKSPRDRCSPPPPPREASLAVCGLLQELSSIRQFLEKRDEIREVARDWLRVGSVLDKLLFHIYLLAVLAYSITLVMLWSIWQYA

ZAC [3] = target: T1, ZAC; experiment: FMP assay at ZAC-HEK293 cells; type: cell-based; conditions: ZAC-HEK293 cells, FMP assay, n = 4
Procedure: The screening of the 1,680 compounds in the compound library for antagonist activity at the ZAC-HEK293 cell line was performed in the FMP assay essentially as previously described. The day before the assay, cells were split into poly-D-lysine-coated black 96-well plates with clear bottoms (BD Biosciences, Palo Alto, CA) (6 × 10^4 cells/well). The following day, the culture medium was aspirated and the wells were washed once with 100 μl assay buffer (140 mM NaCl, 4.7 mM KCl, 2.5 mM CaCl2, 1.2 mM MgCl2, 11 mM HEPES, 10 mM D-glucose, pH 7.4), after which 100 μl assay buffer supplemented with FMP dye (0.5 mg/ml) and the various test compounds were added to the wells. The plate was then incubated at 37 °C for 30 min and assayed in a NOVOStar plate reader (BMG Labtechnologies, Offenburg, Germany) measuring emission at 560 nm caused by excitation at 530 nm before and up to 1 min after the addition of 33 μl of agonist solution. In the screening, the 1,680 compounds in the compound library were tested at assay concentrations in the 10–30 μM range, using Cu^2+ as agonist at an assay concentration of 200 μM.
Data from the FMP assay was analysed using KaleidaGraph 3.08 (Synergy Software, Reading, PA). Concentration-response curves for Cu^2+ and concentration-inhibition curves for compound 1 were constructed based on the difference in the relative fluorescence units (RFU) between the maximal fluorescence recorded before and after application of Cu^2+. The data were fitted to sigmoidal curves with variable slopes using nonlinear regression, and EC50 (Cu^2+) and IC50 (compound 1) values were derived from these equations.

HEK293 cells = experiment: FMP assay at HEK293 cells; type: cell-based; conditions: concentrations up to 300 μM, data not shown
necroptosis = target: necroptosis; design: method as in PMID 30400632; conditions: Fig. 10; cited from earlier work
Adenosine A2A receptor = target: Adenosine A2A receptor; design: method as in PMID 21210664; conditions: Fig. 10; cited from earlier work
urease = system: urease; design: method as in PMID 30086567; conditions: Fig. 10; cited from earlier work

SMILES: Cc1csc(NC(=O)c2cc(Oc3ccc(S(C)(=O)=O)cc3)cc(OC(C)C)c2)n1 [Compound 27e]
- EC50 (glucokinase): 330 nM

SMILES: CC(C)Nc1cc(-c2csc(N(C)C(=O)c3ccc(F)cc3)n2)ncn1 [Compound 27]
- IC50 [1]: 5.1 nM

SMILES: CCNc1ccc(C(=O)Nc2ncc(Cc3cccc(C(F)(F)F)c3)s2)cc1OCCO [Compound 37c]
- IC50 (stearoyl-CoA desaturase): 0.04 nM

SMILES: COc1cc2c3cc1Oc1cc(ccc1O)C[C@@H]1c4c(cc(OC)c(O)c4Oc4ccc(cc4)C[C@@H]3N(C)CC2)CC[N+]1(C)C [TC, tubocurarine]
- Fitted inhibition range (ZAC [2]): ~ 94%

SMILES: COc1ccc(C(=O)Nc2nc(-c3ccccc3)cs2)cc1 [LUF5433]
- IC50 (Adenosine A1 receptor): 32 nM

SMILES: Cc1ccc(-c2csc(NC(=O)c3ccccc3)n2)c(C)c1 [INH1]
- IC50 (Hec1/Nek2 interaction): in uM range

- Agonist response (h5-HT3A): did not evoke any responses
- pEC50 ± S.E.M. (agonist) (ZAC [3]): 4.59 ± 0.17
- EC50 (ZAC [3]; read-out: EC50 (agonist)): 26000 nM
SMILES: [Cl][Cu][Cl] [Cu^2+, CuCl2]
- Agonist response (HEK293 cells): did not evoke any responses

SMILES: CCn1c(SCc2ccc(C(=O)Nc3nccs3)cc2)nnc1-c1ccc(N)cc1 [NTB451]
- Ki (necroptosis): 7900 nM

SMILES: CC(C)(C)CC(=O)Nc1c(F)cc(C(=O)Nc2nccs2)cc1F [Compound 28]
- Ki (Adenosine A2A receptor): 5.9 nM

SMILES: O=C(Nc1nc(Cc2nnc(SCc3ccc(F)cc3)o2)cs1)c1ccccc1 [Compound 7h]
- IC50 (urease): 2200 nM
